Results reported in a melting point compilation (Tetko et al.; mined from patent text by program, amines drawn as free bases though some values may be those of a salt).

First: O=C(O)C1CCc2ccccc2N1C(=O)CSSCC(=O)N1c2ccccc2CCC1C(=O)O (stereo not given)
Second: O=C(c1ccc(Cl)cc1)n1c2c(c3ccccc31)CC(C(=O)O)(C(=O)O)CC2
The melting point of the first is lower: 172 to 174 °C for the first, 210 to 212 °C for the second.

First: CC(=O)c1ccc(CCC(=O)O)cc1
Second: CC(=O)c1ccc2c(c1)N(C1CCN(CCc3ccc(F)cc3)CC1)CC2
The melting point of the first is higher: 118 to 119 °C for the first, 90 to 92 °C for the second.

Compared with `COCC1CN(c2ccc(C3CCC(O)CC3)cn2)C(=O)O1` (racemic), `O=C(OCc1ccc(-c2ccc(N3C[C@H](Cn4ccnn4)OC3=O)cc2F)cn1)N1CCOCC1` is lower in melting point: 142 to 143 °C for the first, 131 to 133 °C for the second.

First: O=c1c2ccc(F)cc2ncn1Cc1ccccc1
Second: Cc1cc2ncn(Cc3ccc([N+](=O)[O-])cc3)c2cc1C
The melting point of the first is lower: 110 to 111 °C for the first, 175 to 177 °C for the second.

Compared with `CCN1C(=O)CCCc2cc(Nc3ncc(Cl)c(Nc4ccccc4C(=O)NC)n3)c(OC)cc21`, `Cc1cc2ccccc2nc1Sc1ccc2c(c1)CC[C@H]1N(C)C(=O)CC[C@]21C` is lower in melting point: 232 to 233 °C for the first, 185 to 193 °C for the second.

Compared with `C=CCOc1cc(F)c(C#N)c(OC(C(=O)OC)c2ccccc2C)c1` (racemic), `COCCOC(=O)Nc1cccc(C)c1CNc1cccn2c(C=O)c(C)nc12` is higher in melting point: 100 to 102 °C for the first, 153 to 155 °C for the second.

First: COc1ccc(CNc2ccccc2[N+](=O)[O-])cc1
Second: O=C(O)[C@H](Cc1ccccc1)NC(=S)Cc1ccc([N+](=O)[O-])cc1
The melting point of the first is lower: 75 to 78 °C for the first, 149 to 150 °C for the second.

Compared with `COc1cc(-n2c(C#N)c(C#N)n(C(F)F)c2=O)c(F)cc1Br`, `COc1ccc(-c2cn(-c3ccc(C(F)(F)F)cc3F)nn2)cc1` is higher in melting point: 150 °C for the first, 152 to 154 °C for the second.

Compared with `CC(C)C(F)(C(=O)O)c1ccc(Cl)cc1` (stereo not given), `Cc1c(-c2ccc(Cl)cc2)c2cc(OC(C)(C)C(=O)O)ccc2n1C` is higher in melting point: 120 °C for the first, 148 to 149 °C for the second.

First: CC1(C)CC(=O)c2c(SCc3ccccc3)sc(-c3cc[nH]n3)c2C1
Second: CCOC(=O)c1cnc2nc(SCc3ccccc3)nn2c1C
The melting point of the first is higher: 215 to 218 °C for the first, 98 to 99 °C for the second.

First: CC(C)CC1NCC(C)(C)NC1=O (stereo not given)
Second: CC1(C)CC(=O)c2c(C3CC3)sc(C#N)c2C1
The melting point of the first is higher: 140 to 144 °C for the first, 80 to 83 °C for the second.

Compared with `CC(=O)Nc1cc(C(C)(C)C)nn1C(=NOS(=O)(=O)c1ccc(C)cc1)C(C)CN1C(=O)c2ccccc2C1=O` (stereo not given), `CS(=O)(=O)c1ccc(-c2nc(SCc3ccccc3)[nH]c2-c2ccc(F)cc2)cc1` is lower in melting point: 170 to 172 °C for the first, 155 to 156 °C for the second.

First: O=C(NCCCc1ccncc1)N(CCC12CC3CC(CC(C3)C1)C2)C1CC1
Second: O=c1[nH]c(NCCCOc2cccc(CN3CCCCC3)c2)ncc1CCCc1ccccc1
The melting point of the first is higher: 108 to 116 °C for the first, 104 to 108 °C for the second.

First: CC(O)c1ccc(C2CCCCC2)cc1 (stereo not given)
Second: Cc1ccc(S(=O)(=O)N2CCCC2c2ccsc2)cc1 (racemic)
The melting point of the first is lower: 81.5 to 82.5 °C for the first, 114 °C for the second.

Compared with `Cc1ccc2c3c1OC(c1ccccc1)N3C(=O)C1CCCN1C2=O` (stereo not given), `Cc1ccccc1N1CCc2cnc3c(C)cccc3c21` is lower in melting point: 158 to 162 °C for the first, 109 to 110 °C for the second.

Compared with `CN(C)c1ccc(Nc2ccccc2)cc1`, `COc1ccc(C(=O)c2sc(Nc3ccccc3)nc2NC(=O)Nc2ccc(F)cc2)cc1` is higher in melting point: 163 to 166 °C for the first, 177 to 178 °C for the second.

Compared with `Nc1nc(NC2CCCCC2)nc2c1ncn2C1C=CCCC1` (stereo not given), `O=S(=O)(c1ccc(Cl)cc1)N(Cc1ccc(OC2CCOCC2)nc1)C1CCOCC1` is higher in melting point: 108 to 111 °C for the first, 123 to 125 °C for the second.

`Cc1ccc(S(=O)(=O)n2cc(Br)c(C)c2C=O)cc1` and `CCOc1ccc(CN2C(=O)SC(CCCC#Cc3ccc(Cl)cc3)(S(=O)(=O)c3ccc(C)cc3)C2=O)c(OCC)c1` (stereo not given) cannot be ordered by melting point: 152 to 155 °C for the first, 151 to 153 °C for the second.

Compared with `CSCCC(=O)NCc1cccc(-c2nc(=O)c3ccccc3s2)n1`, `CCOC(=O)Cc1cccc2c(-c3ccccc3)onc12` is lower in melting point: 192 to 193 °C for the first, 97 to 98 °C for the second.

Compared with `CC(C)c1[nH]n(-c2c(Cl)cccc2Cl)c2nc(Cc3ccc(CC(=O)NCCN(C)C)cc3)nc(=O)c1-2`, `O=C(NCCO)c1cccc(-c2cccc3oc(Cc4cccc(C(F)(F)F)c4)nc23)c1` is lower in melting point: 170 to 172 °C for the first, 132 to 133 °C for the second.

First: CCNNc1nc(C)c(C(=O)OCC)c(Cl)c1[N+](=O)[O-]
Second: CCOC(=O)C1=C(C)NC(c2ccco2)=C(C(=O)OCC)C1c1cccc([N+](=O)[O-])c1 (stereo not given)
The melting point of the first is lower: 117 to 120 °C for the first, 130 to 131 °C for the second.

First: COc1ccc(OCCCCCCc2c(C)n[nH]c2C)c(Cl)c1
Second: CCN(CC)c1nc(C)[nH]c2c(-c3ccc(Cl)cc3Cl)nc(C)c1-2
The melting point of the first is higher: 150 to 151 °C for the first, 146 to 148 °C for the second.

First: CSc1cc([N+](=O)[O-])ccc1C(N)=O
Second: CC(=O)C(=Cc1cccc([N+](=O)[O-])c1)C(=O)OCCCl
The melting point of the first is higher: 202 to 204 °C for the first, 95 to 97 °C for the second.

First: COc1ccc(N(C)CCN(C)CCCN2CCc3cc(OC)c(OC)cc3NC2=O)cc1OC
Second: COc1cc(Nc2nc3cccc(-c4ccccc4)c3o2)cc(OC)c1OC
The melting point of the first is lower: 117 to 119 °C for the first, 182 to 185 °C for the second.

Compared with `CC(=O)N1C(=O)C(C(=O)Cc2cccs2)c2ccccc21` (stereo not given), `CC(=O)Nc1nc(C=O)c(Cc2ccccc2)s1` is higher in melting point: 136 to 137 °C for the first, 191 to 192 °C for the second.

First: O=C(O)C(=NO)C(c1ccc(OCc2ccc3ccc(Cl)cc3n2)cc1)c1ccc(OCc2ccc3ccc(Cl)cc3n2)cc1
Second: C#Cc1cccc(Nc2ncnc3ccc(NC(=O)c4ccc(C(=O)Nc5ccccc5N)nc4)cc23)c1
The melting point of the first is lower: 201 to 202 °C for the first, 213 to 216 °C for the second.

First: CSc1ncc2c(=O)[nH]c(-c3ccccc3OCC(C)C)nc2n1
Second: O=C1CC(c2cccc(-n3cnnn3)c2)=Nc2ccc(-c3ccccc3F)cc2N1
The melting point of the first is higher: 185 to 186 °C for the first, 179 to 180 °C for the second.

First: Oc1cccc(OCCn2ccnc2)c1
Second: Cc1nc(-n2ccc(OCc3ccc(C(F)(F)F)o3)cc2=O)sc1C(=O)O
The melting point of the first is lower: 125 to 127 °C for the first, 261 to 263 °C for the second.

Going from `Cn1cc(-c2cc(-c3ccncc3)ccn2)n(-c2ccc(C(C)(C)C#N)cc2)c1=O` to `O=S(=O)(c1cccc(-c2cc(-c3nc(-c4ccc(C(F)(F)F)cc4)cc(C(F)(F)F)n3)ccn2)c1)N1CCCC1`, the melting point falls from 226 °C to 184 °C.

Compared with `O=C1NC(=Cc2ccccc2)C(NCc2ccccc2)=C1[N+](=O)[O-]`, `N#CCCN1CCOC(c2ccccc2)(c2ccccc2)CC1` is lower in melting point: 218 °C for the first, 106 to 107 °C for the second.

First: CN1CCC(CC2CN=C(c3cc4cccc(N(C)S(=O)(=O)c5cccs5)c4[nH]3)S2)=N1 (stereo not given)
Second: OCc1cc2c(N=C3SC[C@@H]4Cc5ccccc5CN34)cccc2cn1
The melting point of the first is lower: 149 to 150 °C for the first, 210 °C for the second.

Compared with `CCCC(=O)Nc1cc([N+](=O)[O-])c(Sc2cccc3cnccc23)cc1N`, `O=C(CCN1C(=O)CSC1=S)Nc1ccccc1[N+](=O)[O-]` is lower in melting point: 191 to 192 °C for the first, 170 to 171 °C for the second.

First: CCOCc1nc2c(N)nc3cc(NS(=O)(=O)CC)ccc3c2n1CC(C)(C)O
Second: CCCn1c(=O)c2c(NC)n[nH]c2n(Cc2cccc(Cl)c2)c1=O
The melting point of the first is lower: 124 to 127 °C for the first, 263 to 265 °C for the second.

First: O=C(Nc1ccc(Cc2nnn[nH]2)cc1)C(F)(F)C(F)(F)C(F)(F)C(F)(F)C(F)(F)C(F)(F)C(F)(F)C(F)F
Second: Fc1cccc(F)c1-c1nc(C(F)(F)F)n(-c2ccccc2C(F)(F)F)n1
The melting point of the first is higher: 188 to 190 °C for the first, 90 °C for the second.

Compared with `Cc1c(C(=O)Nc2ccc(N3CCC(N4CCOCC4)CC3)c(Br)c2)cnn1-c1ccc(C(F)(F)F)cc1`, `O=C(C1CC1)N1CCc2cc(S(=O)(=O)N3CCN(c4cccc(Cl)c4)CC3)ccc21` is lower in melting point: 220 to 230 °C for the first, 162 to 163 °C for the second.

First: Nc1cc(F)c(N2CCNCC2)cc1Cl
Second: OC1(c2cccc(Cl)c2)CCN(c2nc3ccc(C(F)(F)F)cc3[nH]2)CC1
The melting point of the first is lower: 110 °C for the first, 247 °C for the second.

Compared with `Cc1nc(C)c(N2N=C(c3ccc([N+](=O)[O-])cc3)c3cc4c(cc3CC2C)OCO4)o1` (stereo not given), `O=C(O)CCCc1cc2nc(C(F)(F)F)ccc2n1S(=O)(=O)c1ccc2c(c1)OCO2` is higher in melting point: 76 to 78 °C for the first, 161 °C for the second.

Compared with `COc1c(OCCC(NC(=O)OCc2ccccc2)C(=O)O)cc2c(c1OC)C1=C(CCC1)C(=NNC1=CCNCN1)CC2` (racemic), `O=C(Cc1nnn[nH]1)OCc1ccccc1` is lower in melting point: 172 °C for the first, 72 to 73 °C for the second.

First: CC(=O)[NH+]([O-])C[C@@H]1CN(c2cc(F)c(N3CCN(C(=O)CO)CC3)c(F)c2)C(=O)O1 (stereo not given in full)
Second: CCOC(=O)c1cn(NCC(=O)OC)c2cc3c(cc2c1=O)OCO3
The melting point of the first is lower: 100 to 105 °C for the first, 142 to 145 °C for the second.

First: COc1ccc(N2CCN(c3ccc(OC(F)(F)F)cc3)C(=O)C2)c(-c2ccc(N(C)C)cc2)n1
Second: CN(CCCOc1ccc(OC(F)(F)F)cc1)C1CCN(c2ccc(OC[C@@]3(C)Cn4cc([N+](=O)[O-])nc4O3)cc2)CC1
The melting point of the first is lower: 116 to 120 °C for the first, 167 to 170 °C for the second.

First: Cc1cc(C)c(-c2cn(C)c3nc(NC(=O)N(C)C)n(C)c(=O)c23)c(C)c1
Second: CNc1ncnc2c1ncn2/C=C/c1cc(NC(=O)c2cccc(C(F)(F)F)c2)ccc1C
The melting point of the first is higher: 221 to 223 °C for the first, 201 °C for the second.

First: Fc1ccc(-n2nnc3cccnc32)c(F)c1
Second: Fc1ccccc1C1=NCC(=S)Nc2ccc(I)cc21
The melting point of the first is lower: 132 °C for the first, 242 to 244 °C for the second.

First: CCCCCCCCCCCCCCCC(=O)OC[C@H]1OCC(=NO)[C@@H](O)[C@@H]1O
Second: NS(=O)(=O)c1cc2c(s1)CN(CCO)CC2
The melting point of the first is lower: 97 to 104 °C for the first, 184 to 186 °C for the second.

First: Brc1ccc2ccsc2c1
Second: N#Cc1cc2ccc(OCC3CO3)cc2o1 (stereo not given)
The melting point of the first is lower: 53 to 55 °C for the first, 90 to 92 °C for the second.

First: COc1cc(-c2ccc(Cl)cc2)ccc1COCCc1cccc(NS(=O)(=O)C(F)(F)F)c1
Second: Cc1noc(NS(=O)(=O)c2ccccc2-c2ccc(-c3ncco3)cc2-c2ncco2)c1C
The melting point of the first is lower: 66 to 68 °C for the first, 108 to 113 °C for the second.

Compared with `O=C1C=C(Br)C(=CBr)O1`, `Cc1cc(C)nc(NCSC(=S)N2CCOCC2)n1` is higher in melting point: 97 to 98 °C for the first, 119 to 121 °C for the second.

First: CC(C)(C)[Si](O[C@@H]1CC(=O)C[C@H](O[Si](c2ccccc2)(c2ccccc2)C(C)(C)C)C1)(c1ccccc1)c1ccccc1
Second: Cc1cccc2c1nc(-c1c(F)cccc1F)n2Cc1c(F)c(F)c(F)c(F)c1F
The melting point of the first is lower: 108 to 109 °C for the first, 155 to 156 °C for the second.

`Nc1nc(N)c(-c2cc(Cl)cc(Cl)c2Cl)nc1CO` showed a melting point of 185 to 186 °C.
